Experimental data reported in patent US10583206B2, “Radioactive probe for detecting hydrogen sulfide” (KYUNGPOOK NATIONAL UNIVERSITY INDUSTRY-ACADEMIC COOPERATION …, priority 2015, dated 2020).

How the values were obtained:
Paw inflammation model = format: in vivo, Balb/c or ICR mice
Protocol: (1) Paw Pain Inflammation Model
A small amount of CFA (complete Freund's adjuvant) or formalin was injected into only one paw (right) of the hind paws of Balb/c or ICR mice to establish inflammation models. 1 day after injection of the inflammation inducer, the mice were used in imaging or other in vivo experiments.
It is a known fact that inflamed sites show high concentrations of hydrogen sulfide.
Nuclear medicine imaging was measured by using an Inveon PET/CT system of Siemens Healthcare, and optical imaging was measured by using IVIS spectrum CT equipment. Cherenkov radiation emitted from ^64Cu was measured by using a highly sensitive CCD (charge-coupled device) camera.
Imaging was measured for 1 minute to 5 minutes, and a radiation dose was about 50 μCi to 2000 μCi, and photographs were variously taken as needed, such as immediately after first injection, at 1 hour, 4 hours, and 24 hours later.

[1] = Hydrogen sulfide selectivity test: decomplexation by GSH; format: physicochemical; details: 100 μM or GSH (10 mM), 37° C. for 15 minutes
Protocol: (§1) In addition to hydrogen sulfide, many different anions, radicals, etc. exist in the body. Therefore, to examine selective reactivity of the ^64Cu-labeled complex compound according to the present disclosure for sulfide ions, the following experiment was performed.
(§2) About 45 μCi-55 μCi of the ^64Cu-labeled complex compound (250 μL of triple distilled water) was mixed with 100 μM of various anion solutions (250 μL of triple distilled water) including biothiol, and stirred at 37° C. for 15 minutes.
(§3) Formation of copper sulfide (^64CuS) was quantified by using a radio-TLC scanner.
(§4) Various biothiol or salt solutions were prepared by dissolving the compounds in triple distilled water.
(§5) In Table, concentrations of all biothiols and other competitive materials are 100 μM. Further, specific concentrations of biothiols, anions, and oxidants used in Table are as follows: [L-Cys (1 mM); L-Hcys (10 mM); GSH (10 mM); DL-dithiothretitol (DTT, 100 μM); L-ascorbic acid (L-AsA, 10 mM); 2-mercaptoethanol (2-ME, 10 mM); NaCl (10 mm); KI (1 mM); Na2S2O3 (1 mM); Na2S2O5 (1 mM); NaOAc (1 mM); H2O2 ([…]); NaClO4 (100 μM); NaHCO3 (100 μM); NaNO2 ([…]); NaN3 (100 μM); ATB 337 (100 μM); diallyl trisulphide (100 μM)].

[2] = Hydrogen sulfide selectivity test: decomplexation by DAT (diallyl trisulphide); format: physicochemical; details: DAT = diallyl trisulphide (100 μM); 37° C. for 15 minutes
Protocol: as §1, §2, §3, §4, §5

[3] = Hydrogen sulfide selectivity test: decomplexation by Cys; format: physicochemical; details: 100 μM or L-Cys (1 mM), 37° C. for 15 minutes
Protocol: as §1, §2, §3, §4, §5

[4] = Test of hydrogen sulfide detection over time (^64CuS formation, radio-TLC); format: physicochemical; set-up: unit not given here; details: 100 μM NaHS, 37° C.
Protocol: To examine reactivity of the ^64Cu-labeled complex compound according to the present disclosure over time, the following experiment was performed.
A detailed experimental method is as follows.
About 45 μCi-50 μCi of ^64Cu-labeled complex compound (250 μL of triple distilled water) was mixed with 100 μM of NaHS solution ([…] of triple distilled water), and stirred at 37° C. for 15 minutes. Formation of copper sulfide (^64CuS) was quantified by using a radio-TLC scanner.

[5] = Hydrogen sulfide selectivity test: decomplexation by Na2S2O5; format: physicochemical; details: 100 μM or (1 mM), 37° C. for 15 minutes
Protocol: as §1, §2, §3, §4, §5

[6] = Hydrogen sulfide selectivity test: decomplexation by L-AsA; format: physicochemical; details: L-ascorbic acid; 100 μM or (L-AsA, 10 mM); 37° C. for 15 minutes
Protocol: as §1, §2, §3, §4, §5

[7] = Hydrogen sulfide selectivity test: decomplexation by NaCl; format: physicochemical; details: 100 μM or NaCl (10 mm), 37° C. for 15 minutes
Protocol: as §1, §2, §3, §4, §5

[8] = Test of hydrogen sulfide detection sensitivity (% decomplexation with NaHS, radio-TLC); format: physicochemical; details: for % decomplexation: 37° C. for 15 minutes
Protocol: To measure hydrogen sulfide detection sensitivity of the ^64Cu-labeled complex compound according to the present disclosure, the following experiment was performed.
About 45 μCi-55 μCi of ^64Cu-labeled complex compound (250 μL of triple distilled water) was mixed with various concentrations of NaHS solution (250 µL of triple distilled water), and stirred at 37° C. for 15 minutes (a total volume used in the reaction was equally 500 μL). After completion of the reaction, the resulting products were strongly stirred to mix appropriately.
Formation of copper sulfide (^64CuS) was confirmed by quantification of % decomplexation by using a radio-TLC scanner, and results are shown in the following Tables 2 and 3.

[9] = Hydrogen sulfide selectivity test: decomplexation by NaOAc; format: physicochemical; details: 100 μM or (1 mM), 37° C. for 15 minutes
Protocol: as §1, §2, §3, §4, §5

[10] = Hydrogen sulfide selectivity test: decomplexation by ATB 337; format: physicochemical; details: ATB 337 (100 μM); 37° C. for 15 minutes
Protocol: as §1, §2, §3, §4, §5

[11] = Hydrogen sulfide selectivity test: decomplexation by ME; format: physicochemical; details: 2-mercaptoethanol; 100 μM or (2-ME, 10 mM); 37° C. for 15 minutes
Protocol: as §1, §2, §3, §4, §5

[12] = Hydrogen sulfide selectivity test: decomplexation by NaClO4; format: physicochemical; details: NaClO4 (100 μM); 37° C. for 15 minutes
Protocol: as §1, §2, §3, §4, §5

[13] = Hydrogen sulfide selectivity test: decomplexation by NaN3; format: physicochemical; details: NaN3 (100 μM); 37° C. for 15 minutes
Protocol: as §1, §2, §3, §4, §5

[14] = Hydrogen sulfide selectivity test: decomplexation by H2O2; format: physicochemical; details: H2O2 (100 µM); 37° C. for 15 minutes
Protocol: as §1, §2, §3, §4, §5

[15] = Hydrogen sulfide selectivity test: decomplexation by NaNO2; format: physicochemical; details: NaNO2 (100 µM); 37° C. for 15 minutes
Protocol: as §1, §2, §3, §4, §5

[16] = Hydrogen sulfide selectivity test: decomplexation by Hcys; format: physicochemical; details: 100 μM or L-Hcys (10 mM), 37° C. for 15 minutes
Protocol: as §1, §2, §3, §4, §5

[17] = Hydrogen sulfide selectivity test: decomplexation by DTT; format: physicochemical; details: DL-dithiothretitol (DTT, 100 μM); 37° C. for 15 minutes
Protocol: as §1, §2, §3, §4, §5

[18] = Test of hydrogen sulfide selectivity (overall statements); format: physicochemical
Protocol: as §1, §2, §3, §4, §5

[19] = Hydrogen sulfide selectivity test: decomplexation by Na2S2O3; format: physicochemical; details: 100 μM or (1 mM), 37° C. for 15 minutes
Protocol: as §1, §2, §3, §4, §5

[20] = Hydrogen sulfide selectivity test: decomplexation by Kl; format: physicochemical; details: 100 μM or KI (1 mM), 37° C. for 15 minutes
Protocol: as §1, §2, §3, §4, §5

[21] = Hydrogen sulfide selectivity test: decomplexation by NaHCO3; format: physicochemical; details: NaHCO3 (100 μM); 37° C. for 15 minutes
Protocol: as §1, §2, §3, §4, §5

[22] = system: Myocardial infarction model; experiment: Imaging study in myocardial infarction model (PET); format: in vivo, Sprague-Dawley rats; details: PET imaging after injection
Text: (2) Myocardial Infarction Model
A myocardial infarction model was established by using Sprague-Dawley rats (12-week-old or older, about 250 g). 2 days later after induction of myocardial infarction by occlusion of the coronary arteries in the heart, the rats were used in imaging tests. It is a known fact that myocardial infarction sites show high concentrations of hydrogen sulfide.
It is known that myocardial infarction sites show high concentrations of hydrogen sulfide. Thus, after induction of myocardial infarction by coronary artery occlusion in rats, 50 μCi-900 μCi of the ^64Cu-labeled complex compound was injected via the tails of the rats, and uptake in the myocardial infarction site was examined over time by PET imaging.
36 hours after establishment of the myocardial infarction model, 730 μCi of the radioisotope-labeled complex compound of the present disclosure was injected and nuclear medicine imaging was performed. 2 days later, […] of FDG was injected into the same rat, and then FDG-PET images were obtained. Results are shown in FIGS. 15 to 17 (in the nuclear medicine imaging, the upper image represents a transverse image, and the lower image represents a coronal image).

C1COCCNCCOCCN1.[64Cu+2] [Example 3]
selective uptake in inflamed sites (Paw inflammation model; optical imaging and nuclear medicine imaging): selective uptake
Decomplexation [%] [1]: 48%
Decomplexation [%] [2]: 100%
Decomplexation [%] [3]: 0.4%
Formation of copper sulfide (^64CuS) over time ([4]; 10 sec): 62
Formation of copper sulfide (^64CuS) over time ([4]; 30 sec): 70
Formation of copper sulfide (^64CuS) over time ([4]; 60 sec): 75
Formation of copper sulfide (^64CuS) over time ([4]; 5 min): 100
Formation of copper sulfide (^64CuS) over time ([4]; 10 min): 100
Formation of copper sulfide (^64CuS) over time ([4]; 15 min): 100
Decomplexation [%] [5]: 5%
Decomplexation [%] [6]: 15%
Decomplexation [%] [7]: 0.3%
% decomplexation ([8]; NaHS 0 μM): 0%
% decomplexation ([8]; NaHS 1 μM): 0%
% decomplexation ([8]; NaHS 10 μM): 3%
% decomplexation ([8]; NaHS 15 μM): 6%
% decomplexation ([8]; NaHS 20 μM): 79%
% decomplexation ([8]; NaHS 50 μM): 100%
% decomplexation ([8]; NaHS 100 μM): 100%
Decomplexation [%] [9]: 15%
Decomplexation [%] [10]: 3 ± 1%
Decomplexation [%] [11]: 16%
Decomplexation [%] [12]: 0.4%
Decomplexation [%] [13]: 0.6%
Decomplexation [%] [14]: 0.4%
Decomplexation [%] [15]: 0.5%
Decomplexation [%] [16]: 27 ± 3%
Decomplexation [%] [17]: 45 ± 2%
selective reactivity with hydrogen sulfide versus biothiol compounds or anions, in words [18]: did not selectively react with hydrogen sulfide
Decomplexation [%] [19]: 19 ± 5%
Decomplexation [%] [20]: 0.1%
Decomplexation [%] [21]: 0.3%

C1C[N]2CC[N]3CC[N]4CC[N](C1)[64Cu]234 [Example 16, ^64Cu-labeled cyclam]
difference between inflamed and normal paws (Paw inflammation model; mouse, in vivo): no obvious difference in the inflamed and normal paws
uptake compared to injection of the same quantity of ^64Cu-labeled cyclen of Example 1 (Paw inflammation model; mouse, in vivo): low uptake
Decomplexation [%] [1]: 0.8 ± 0.2%
Decomplexation [%] [3]: 0.7 ± 0.2%
Formation of copper sulfide (^64CuS) over time ([4]; 10 sec): 0
Formation of copper sulfide (^64CuS) over time ([4]; 30 sec): 0
Formation of copper sulfide (^64CuS) over time ([4]; 60 sec): 0
Formation of copper sulfide (^64CuS) over time ([4]; 5 min): 3
Formation of copper sulfide (^64CuS) over time ([4]; 10 min): 5
Formation of copper sulfide (^64CuS) over time ([4]; 15 min): 10
Decomplexation [%] [5]: 0.5 ± 0.0%
Decomplexation [%] [6]: 0.7 ± 0.2%
Decomplexation [%] [7]: 0.7 ± 0.0%
% decomplexation ([8]; NaHS 0 μM): 0%
% decomplexation ([8]; NaHS 1 μM): 0%
% decomplexation ([8]; NaHS 10 μM): 0%
% decomplexation ([8]; NaHS 15 μM): 0%
% decomplexation ([8]; NaHS 20 μM): 0%
% decomplexation ([8]; NaHS 50 μM): 1.3%
% decomplexation ([8]; NaHS 100 μM): 10.5%
Decomplexation [%] [9]: 0.8 ± 0.0%
Decomplexation [%] [10]: 0.6 ± 0.0%
Decomplexation [%] [11]: 0.5 ± 0.6%
Decomplexation [%] [12]: 0.6 ± 0.1%
uptake / visualisation of the myocardial infarction site [22]: no specific uptake was observed in the heart
Decomplexation [%] [13]: 0.7 ± 0.1%
Decomplexation [%] [14]: 0.7 ± 0.2%
Decomplexation [%] [15]: 0.5 ± 0.1%
Decomplexation [%] [16]: 0.7 ± 0.0%
Decomplexation [%] [17]: 0.8 ± 0.0%
Decomplexation [%] [19]: 0.8 ± 0.1%
Decomplexation [%] [20]: 0.7 ± 0.0%
Decomplexation [%] [21]: 0.5 ± 0.1%

C1C[SH]2CC[SH]3CC[SH]4CC[N]1[64Cu]243 (stereo not drawn) [Example 23]
Decomplexation [%] [1]: 0.7%
Decomplexation [%] [2]: 0.4%
Decomplexation [%] [3]: 0.5%
Decomplexation [%] [5]: 0.6%
Decomplexation [%] [6]: 0.4%
Decomplexation [%] [7]: 0.5%
% decomplexation against 100 μM NaHS solution ([8]; 100 μM NaHS, Table 3): 78.3 ± 2.6%
% decomplexation ([8]; NaHS 0 μM): 0%
% decomplexation ([8]; NaHS 1 μM): 0%
% decomplexation ([8]; NaHS 10 μM): 0%
% decomplexation ([8]; NaHS 15 μM): 36.4%
% decomplexation ([8]; NaHS 20 μM): 49.4%
% decomplexation ([8]; NaHS 50 μM): 67.7%
% decomplexation ([8]; NaHS 100 μM): 78.2%
Decomplexation [%] [9]: 0.3%
Decomplexation [%] [10]: 0.6%
Decomplexation [%] [11]: 0.5%
Decomplexation [%] [12]: 0.8%
Decomplexation [%] [13]: 0.8%
Decomplexation [%] [14]: 0.3%
Decomplexation [%] [15]: 0.6%
Decomplexation [%] [16]: 0.4%
Decomplexation [%] [17]: 0.4%
Decomplexation [%] [19]: 0.2%
Decomplexation [%] [20]: 0.2%
Decomplexation [%] [21]: 0.1%

OC[C@H]1O[C@@H](O)[C@H]([18F])[C@@H](O)[C@@H]1O [FDG, reference compound]
uptake / visualisation of the myocardial infarction site [22]: uptake did not occur in the myocardial infarction site
